Laboratory results from US20260138976A1 (Hoffmann-La Roche Inc., priority 2022, published 2026).

Tests used:
[1] = test system: primary human T-cells; experiment: IL2 secretion measurements (24 h, CD3-stimulated T-cells, PBS counter screen); type: cell-based; conditions: for Emax IL2 (% activation): CD3 condition, normalised to DMSO (neutral) and 20 μM reference compound A1 = 100%; for EC50: Homo sapiens, T-cell, CD3-stimulated primary human T-cells, IL2 secretion, fitted sigmoidal curve, read-out: Tcell IL2 CD3 EC50
Procedure, shortened: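 Expanded primary human T-cells (100k/well) were plated on anti-CD3-coated or PBS-only plates with compound in a 5–6 point dose response (top 20 or 10 μM final, 3.333-fold, 0.2% DMSO). IL-2 in 24 h supernatants was quantified by ProQuantum immunoassay or ELISA. Values were normalized to DMSO and 20 μM reference compound A1 (100%), giving EC50 and Emax.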

[2] = target: T1, DGKα (hDGKalpha(1-735)-N-His) (Homo sapiens, UniProt P23743); experiment: In vitro DGK inhibition assay, DGKalpha ADP Glo (in house); type: biochemical; conditions: 4 nM DGKα, 25 μM ATP, 125 uM DLG in liposomes, 1 hour reaction
T1 construct: hDGKalpha(1-735)-N-His; His (N); made in house; host or cells: Sf21 insect cells (baculovirus)
T1 sequence (P23743 whole entry): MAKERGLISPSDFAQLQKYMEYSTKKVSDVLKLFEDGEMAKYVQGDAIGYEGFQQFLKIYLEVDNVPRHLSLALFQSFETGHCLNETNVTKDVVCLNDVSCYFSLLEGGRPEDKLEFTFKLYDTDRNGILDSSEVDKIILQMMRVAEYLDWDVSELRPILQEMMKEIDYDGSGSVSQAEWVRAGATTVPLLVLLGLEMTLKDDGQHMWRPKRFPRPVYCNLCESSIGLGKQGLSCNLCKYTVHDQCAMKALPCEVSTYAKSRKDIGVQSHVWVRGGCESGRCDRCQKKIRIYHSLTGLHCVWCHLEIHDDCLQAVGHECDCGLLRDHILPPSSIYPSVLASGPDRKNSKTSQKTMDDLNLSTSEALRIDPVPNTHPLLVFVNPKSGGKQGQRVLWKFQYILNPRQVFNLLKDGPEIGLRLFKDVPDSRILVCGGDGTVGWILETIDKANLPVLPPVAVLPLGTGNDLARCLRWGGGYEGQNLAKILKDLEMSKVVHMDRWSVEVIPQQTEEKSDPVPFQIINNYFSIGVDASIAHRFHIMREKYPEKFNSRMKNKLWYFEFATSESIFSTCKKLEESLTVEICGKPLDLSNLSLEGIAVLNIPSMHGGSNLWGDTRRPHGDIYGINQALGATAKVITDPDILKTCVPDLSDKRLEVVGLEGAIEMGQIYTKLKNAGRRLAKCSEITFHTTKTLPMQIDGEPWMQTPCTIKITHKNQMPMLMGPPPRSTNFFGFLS
Procedure, shortened: (§1)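 Full-length His-tagged human DGKα (4 nM) or DGKζ (2 nM), expressed in Sf21 cells, phosphorylated 125 µM DLG in PS/PC liposomes with ATP at 25 µM (α) or 50 µM (ζ) for 1 h. ADP was measured by ADP-Glo luminescence. Compounds were tested as 11-point 1:3 series in 2% DMSO.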

[3] = target: T2, DGKζ (hDGKzeta(1-928)-N-His) (Homo sapiens, UniProt Q13574); experiment: In vitro DGK inhibition assay, DGKzeta ADP Glo (in house); type: biochemical; conditions: 2 nM DGKζ, 50 μM ATP, 125 uM DLG in liposomes, 1 hour reaction
T2 construct: hDGKzeta(1-928)-N-His; His (N); made in house; host or cells: Sf21 insect cells (baculovirus)
T2 sequence (Q13574 whole entry): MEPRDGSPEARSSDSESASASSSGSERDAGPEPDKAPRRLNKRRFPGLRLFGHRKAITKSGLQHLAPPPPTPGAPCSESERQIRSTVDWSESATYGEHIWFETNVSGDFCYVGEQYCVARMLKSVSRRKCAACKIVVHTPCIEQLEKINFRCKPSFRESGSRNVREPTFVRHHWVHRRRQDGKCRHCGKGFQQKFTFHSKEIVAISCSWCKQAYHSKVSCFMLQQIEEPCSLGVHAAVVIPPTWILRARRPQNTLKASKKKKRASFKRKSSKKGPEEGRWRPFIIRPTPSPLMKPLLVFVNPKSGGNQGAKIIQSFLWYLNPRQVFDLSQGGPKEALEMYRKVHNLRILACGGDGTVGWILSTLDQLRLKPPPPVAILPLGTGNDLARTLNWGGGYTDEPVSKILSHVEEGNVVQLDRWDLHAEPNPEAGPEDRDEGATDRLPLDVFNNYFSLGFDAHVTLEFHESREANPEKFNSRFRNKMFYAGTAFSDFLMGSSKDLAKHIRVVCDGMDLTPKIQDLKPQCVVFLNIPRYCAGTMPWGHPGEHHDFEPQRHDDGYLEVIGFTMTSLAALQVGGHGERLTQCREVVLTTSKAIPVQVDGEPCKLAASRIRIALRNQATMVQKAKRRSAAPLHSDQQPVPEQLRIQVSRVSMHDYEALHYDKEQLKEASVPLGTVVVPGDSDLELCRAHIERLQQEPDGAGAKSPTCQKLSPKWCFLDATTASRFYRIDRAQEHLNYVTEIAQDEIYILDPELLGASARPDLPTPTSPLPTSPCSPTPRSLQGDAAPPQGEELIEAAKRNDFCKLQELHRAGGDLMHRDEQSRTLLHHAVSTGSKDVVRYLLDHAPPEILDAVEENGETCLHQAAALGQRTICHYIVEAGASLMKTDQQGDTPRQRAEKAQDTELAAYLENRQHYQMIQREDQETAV
Procedure, shortened: as §1

Row | Structure (SMILES) | IC50 [2] | IC50 [3] | Emax IL2 (% activation) [1] | EC50 [1]
1 | CC(C#N)c1nnc(-c2ccc3c(c2)N(Cc2ccc(-c4noc(C(F)(F)F)n4)cc2)C(=O)[C@@H](N)CS3(=O)=O)o1 (stereo partly drawn) [Example 35, 2-[5-[(3R)-3-amino-1,1,4-trioxo-5-[[4-[5-(trifluoromethyl)-1,2,4-oxadiazol-3-yl]phenyl]methyl]-2,3-dihydro-1λ^6,5-benzothiazepin-7-yl]-1,3,4-oxadiazol-2-yl]propanenitrile] | 10.1 µM | 3.06 µM | 193 % activation | 2.15 µM
2 | N[C@H]1CS(=O)(=O)c2ccc(-c3nnc(C4(C5CC5)CCCO4)o3)cc2N(Cc2ccc(-c3noc(C(F)(F)F)n3)cc2)C1=O (stereo partly drawn) [Example 36, (3R)-3-amino-7-[5-(2-cyclopropyl-tetrahydrofuran-2-yl)-1,3,4-oxadiazol-2-yl]-1,1-dioxo-5-[[4-[5-(trifluoromethyl)-1,2,4-oxadiazol-3-yl]phenyl]methyl]-2,3-dihydro-1λ^6,5-benzothiazepin-4-one] | 2.6 µM | 0.956 µM | 223 % activation | 0.616 µM
3 | COC(F)(c1nnc(-c2ccc3c(c2)N(Cc2ccc(-c4noc(C(F)(F)F)n4)cc2)C(=O)[C@@H](N)CS3(=O)=O)o1)C(F)(F)F (stereo partly drawn) [Example 37, (3R)-3-amino-1,1-dioxo-7-[5-(1,2,2,2-tetrafluoro-1-methoxy-ethyl)-1,3,4-oxadiazol-2-yl]-5-[[4-[5-(trifluoromethyl)-1,2,4-oxadiazol-3-yl]phenyl]methyl]-2,3-dihydro-1λ^6,5-benzothiazepin-4-one] | 2 µM | 8.83 µM | 198 % activation | 0.338 µM
4 | CC(C)(C#N)c1nnc(-c2ccc3c(c2)N(Cc2ccc(-c4noc(C(F)(F)F)n4)cc2)C(=O)[C@@H](N)CS3(=O)=O)o1 [Example 38, 2-[5-[(3R)-3-amino-1,1,4-trioxo-5-[[4-[5-(trifluoromethyl)-1,2,4-oxadiazol-3-yl]phenyl]methyl]-2,3-dihydro-1λ^6,5-benzothiazepin-7-yl]-1,3,4-oxadiazol-2-yl]-2-methyl-propanenitrile] | 9.77 µM | 1.14 µM | 311 % activation | 3.11 µM
5 | N[C@H]1CS(=O)(=O)c2ccc(-c3nnc(C4(CO)CCCO4)o3)cc2N(Cc2ccc(-c3noc(C(F)(F)F)n3)cc2)C1=O (stereo partly drawn) [Example 54, (3R)-3-amino-7-[5-[2-(hydroxymethyl)tetrahydrofuran-2-yl]-1,3,4-oxadiazol-2-yl]-1,1-dioxo-5-[[4-[5-(trifluoromethyl)-1,2,4-oxadiazol-3-yl]phenyl]methyl]-2,3-dihydro-1λ^6,5-benzothiazepin-4-one] | 12.6 µM | 1.38 µM | 126 % activation | 3.34 µM
6 | COC(=O)N1CC(c2nnc(-c3ccc4c(c3)N(Cc3ccc(-c5noc(C(C)(C)C)n5)cc3)C(=O)[C@@H](N)CS4(=O)=O)o2)CC(F)(F)C1 (stereo partly drawn) [Example 56, methyl 3,3-difluoro-5-[5-[(3R)-3-amino-5-[[4-(5-tert-butyl-1,2,4-oxadiazol-3-yl)phenyl]methyl]-1,1,4-trioxo-2,3-dihydro-1λ^6,5-benzothiazepin-7-yl]-1,3,4-oxadiazol-2-yl]piperidine-1-carboxylate] | 1.99 µM | 0.228 µM | 109 % activation | 0.94 µM
7 | COC(=O)N1CC(c2nnc(-c3ccc4c(c3)N(Cc3ccc(-c5ccc(C(F)(F)F)cc5)nc3)C(=O)[C@@H](N)CS4(=O)=O)o2)CC(F)(F)C1 (stereo partly drawn) [Example 57, methyl 3,3-difluoro-5-[5-[(3R)-3-amino-1,1,4-trioxo-5-[[6-[4-(trifluoromethyl)phenyl]-3-pyridyl]methyl]-2,3-dihydro-1λ^6,5-benzothiazepin-7-yl]-1,3,4-oxadiazol-2-yl]piperidine-1-carboxylate] | 3.34 µM | 2.34 µM | 100 % activation | 0.652 µM
8 | COC(=O)N1CC2CC(c3nnc(-c4ccc5c(c4)N(Cc4ccc(-c6ccc(C(F)(F)F)cc6)nc4)C(=O)[C@@H](N)CS5(=O)=O)o3)(C2)C1 [Example 58, methyl 1-[5-[(3R)-3-amino-1,1,4-trioxo-5-[[6-[4-(trifluoromethyl)phenyl]-3-pyridyl]methyl]-2,3-dihydro-1λ^6,5-benzothiazepin-7-yl]-1,3,4-oxadiazol-2-yl]-3-azabicyclo[3.1.1]heptane-3-carboxylate] | 26.4 µM | 2.14 µM | 505 % activation | 4.71 µM
9 | CCOC(F)(c1nnc(-c2ccc3c(c2)N(Cc2ccc(-c4noc(C(F)(F)F)n4)cc2)C(=O)[C@@H](N)CS3(=O)=O)o1)C(F)(F)F (stereo partly drawn) [Example 64, (3R)-3-amino-7-[5-(1-ethoxy-1,2,2,2-tetrafluoro-ethyl)-1,3,4-oxadiazol-2-yl]-1,1-dioxo-5-[[4-[5-(trifluoromethyl)-1,2,4-oxadiazol-3-yl]phenyl]methyl]-2,3-dihydro-1λ^6,5-benzothiazepin-4-one] | 1.96 µM | 2.79 µM | 543 % activation | 0.889 µM

Second part, led by results:

Row | IC50 [2] | IC50 [3] | Structure (SMILES) | Emax IL2 (% activation) [1] | EC50 [1]
10 | 19 µM | 1.78 µM | N[C@H]1CS(=O)(=O)c2ccc(-c3nnc(C4(N)CCCCC4)o3)cc2N(Cc2ccc(-c3noc(C(F)(F)F)n3)cc2)C1=O [Example 39, (3R)-3-amino-7-[5-(1-aminocyclohexyl)-1,3,4-oxadiazol-2-yl]-1,1-dioxo-5-[[4-[5-(trifluoromethyl)-1,2,4-oxadiazol-3-yl]phenyl]methyl]-2,3-dihydro-1λ^6,5-benzothiazepin-4-one] | 143 % activation | 0.622 µM
11 | 30.6 µM | 3.24 µM | N[C@H]1CS(=O)(=O)c2ccc(-c3nnc(C4(N)CCCCC4)o3)cc2N(Cc2ccc(-c3ccc(C(F)(F)F)cn3)cc2)C1=O [Example 41, (3R)-3-amino-7-[5-(1-aminocyclohexyl)-1,3,4-oxadiazol-2-yl]-1,1-dioxo-5-[[4-[5-(trifluoromethyl)-2-pyridyl]phenyl]methyl]-2,3-dihydro-1λ^6,5-benzothiazepin-4-one] | 66 % activation | 3.34 µM
12 | 30.4 µM | 8.12 µM | N[C@H]1CS(=O)(=O)c2ccc(-c3nnc(C4(N)CCCCC4)o3)cc2N(Cc2ccc(-c3ccc(C(F)(F)F)cc3)cc2)C1=O [Example 42, (3R)-3-amino-7-[5-(1-aminocyclohexyl)-1,3,4-oxadiazol-2-yl]-1,1-dioxo-5-[[4-[4-(trifluoromethyl)phenyl]phenyl]methyl]-2,3-dihydro-1λ^6,5-benzothiazepin-4-one] | 128 % activation | 1.39 µM
13 | 17.1 µM | 1.09 µM | COc1ccc(-c2ccc(CN3C(=O)[C@@H](N)CS(=O)(=O)c4ccc(-c5nnc(C6(N)CCCCC6)o5)cc43)cc2)cc1 [Example 43, (3R)-3-amino-7-[5-(1-aminocyclohexyl)-1,3,4-oxadiazol-2-yl]-5-[[4-(4-methoxyphenyl)phenyl]methyl]-1,1-dioxo-2,3-dihydro-1λ^6,5-benzothiazepin-4-one] | 89 % activation | 0.771 µM
14 | 3.38 µM | 0.851 µM | COc1ccc(-c2ccc(CN3C(=O)[C@@H](N)CS(=O)(=O)c4ccc(-c5nnc(C6(F)CCCN(C)C6)o5)cc43)cc2)cc1 (stereo partly drawn) [Example 50, (3R)-3-amino-7-[5-(3-fluoro-1-methyl-3-piperidyl)-1,3,4-oxadiazol-2-yl]-5-[[4-(4-methoxyphenyl)phenyl]methyl]-1,1-dioxo-2,3-dihydro-1λ^6,5-benzothiazepin-4-one] | 119 % activation | 3.6 µM
15 | 6.26 µM | 1.8 µM | CN1CCCC(F)(c2nnc(-c3ccc4c(c3)N(Cc3ccc(-c5ccc(C(F)(F)F)cn5)cc3)C(=O)[C@@H](N)CS4(=O)=O)o2)C1 (stereo partly drawn) [Example 51, (3R)-3-amino-7-[5-(3-fluoro-1-methyl-3-piperidyl)-1,3,4-oxadiazol-2-yl]-1,1-dioxo-5-[[4-[5-(trifluoromethyl)-2-pyridyl]phenyl]methyl]-2,3-dihydro-1λ^6,5-benzothiazepin-4-one] | 135 % activation | 2.49 µM
16 | > 19.8 µM | 1.5 µM | N#CC1(c2nnc(-c3ccc4c(c3)N(Cc3ccc(-c5ccc(C(F)(F)F)cn5)cc3)C(=O)[C@@H](N)CS4(=O)=O)o2)CC1 [Example 62, 1-[5-[(3R)-3-amino-1,1,4-trioxo-5-[[4-[5-(trifluoromethyl)-2-pyridyl]phenyl]methyl]-2,3-dihydro-1λ^6,5-benzothiazepin-7-yl]-1,3,4-oxadiazol-2-yl]cyclopropane-carbonitrile] | 110 % activation | 2.11 µM
